In the Deep4Chem optical property database one finds emission maximum data, which are given here for 15 molecules.

The series in a line: solvent given as SMILES.

For `CCCCc1cc(-c2cccc(COC)c2)oc1-c1cccc(-c2cc(CCCC)c(-c3cccc(-c4cc(CCCC)c(-c5cccc(-c6oc(-c7cccc(-c8oc(-c9cccc(-c%10oc(-c%11cccc(COC)c%11)cc%10CCCC)c9)cc8CCCC)c7)cc6CCCC)c5)o4)c3)o2)c1`, under “in ClC(Cl)Cl”, the emission maximum is reported as 374 nm.

With `Cc1c(C(=O)c2c(F)cc(F)cc2F)c2ccc3cccc4c5cccc6ccc1c(c65)c2c34`, the emission maximum (in ClCCl) is on record as 499 nm.

`c1ccc(-n2c(-c3cccc4ccccc34)nc3c4ccccc4c4ccccc4c32)cc1` displayed an emission maximum (in C1CCOC1) of 413.91 nm; an emission maximum (in CCCCCC) of 384 nm; an emission maximum (in CS(C)=O) of 423 nm; an emission maximum (in Cc1ccccc1) of 410 nm; an emission maximum (in ClCCl) of 415.6 nm.

In turn, `Cc1ccc2ccc3cccc4ccc1c2c34` showed an emission maximum (in CCCCCC) of 377 nm, an emission maximum (in CO) of 377 nm and an emission maximum (in ClCCl) of 378 nm.

Take `FC(F)(F)c1cc2n(n1)[B-]1(c3ccccc3-c3ccccc31)[n+]1ccc3ccccc3c1-2`: the emission maximum is given as 490 nm (in C1CCCCC1), 538 nm (in Cc1ccccc1) and 564 nm (in ClCCl).

Molecule `C(#Cc1ccncc1)C(C#Cc1ccncc1)=Cc1ccc(C=C(C#Cc2ccncc2)C#Cc2ccncc2)cc1` gave an emission maximum (in ClC(Cl)Cl) of 472 nm.

As for `COc1ccc(N2c3cc(OC)ccc3N=c3cc4c(cc32)=Nc2cc(C(C)(C)C)cc(C(C)(C)C)c2O4)cc1`, the emission maximum (in CC#N) is 624 nm, the emission maximum (in CCCCCC) is on record as 587 nm and the emission maximum (in CO) is given as 633 nm.

As to `O=C1C2=C(O[B-](F)(F)[n+]3c2ccc2ccccc23)c2ccc(N3CCOCC3)c3cccc1c23`, the emission maximum reads like this: (in C1CCOC1) 545 nm; (in CC#N) 553 nm; (in CCO) 552 nm; (in CO) 558 nm; (in ClCCl) 544 nm.

Consider `CCOC(=O)CCOc1ccccc1C(c1c(C)[nH]c2ccccc12)c1c(C)[nH]c2ccccc12`, for which the emission maximum (in C1CCCCC1) was 329 nm, the emission maximum (in CC#N) is given as 340 nm, the emission maximum (in CO) stood at 345 nm and the emission maximum (in O) is listed as 350 nm.

In turn, `Cc1ccc(C2=C3C=CC4=[N+]3[P-](=O)(=O)n3c2ccc3-c2ccc([nH]2)/C(c2ccc(C)cc2)=c2/cc/c(o2)=C(\c2ccc(C)cc2)c2ccc4[nH]2)cc1` registered an emission maximum (in ClC(Cl)Cl) of 714 nm.

For `CCCCCCCCCCCCOc1ccc(C#Cc2ccc(C#Cc3ccc(OCCCCCCCCCCCC)c(OCCCCCCCCCCCC)c3)c3nc4c5ccccc5c5ccccc5c4nc23)cc1OCCCCCCCCCCCC`, the emission maximum runs as follows: (in C1CCOC1) 558 nm; (in Cc1ccccc1) 541 nm; (in ClCCl) 566 nm.

Where the note is “in ClC(Cl)Cl”, `Cc1ccc(C2=C(/C=C/C(=O)OC3CC[C@@]4(C)C(=CC[C@H]5[C@@H]6CC[C@H]([C@H](C)CCCC(C)C)[C@@]6(C)CC[C@@H]54)C3)C(c3ccc(C)cc3)=[N+]3C2=Nc2c(-c4ccc(C)cc4)c(Br)c(-c4ccc(C)cc4)n2[B-]3(F)F)cc1` (stereo partly specified) showed an emission maximum of 704 nm.

Where the note is “in CC#N”, `Cc1cc(=O)[nH]c(=O)[nH]1` had an emission maximum of 308 nm.

Regarding `N#CC(C#N)=C(/C=C/c1cc2c3c(c1)CCCN3CCC2)c1ccc2c3c(cccc13)CC2`, the emission maximum runs as follows: (in C1CCOC1) 602 nm; (in CC#N) 622 nm; (in CC(C)=O) 619 nm; (in CCOC(C)=O) 600 nm; (in CN(C)C=O) 629 nm; (in CO) 613 nm. Further, the emission maximum was 580 nm (in Cc1ccccc1) and 599 nm (in ClC(Cl)Cl).

Where the note is “in C1CCOC1”, `C1=C(c2ccccc2)C=C(c2ccccc2)/C1=C/c1ccc(-c2cccs2)s1` registered an emission maximum of 503 nm.
